Experimental data taken from ChEMBL document CHEMBL5661943, “ASAP - In vitro antiviral effect” (2024).
Values joined by “and” are separate entries in the source; they are usually repeats but may differ in a detail not shown here. Identical values can stand only once.

Assays:
Zika virus [1] = assay: Functional CPE-based assay to measure dose dependent changes in antiviral-drug inhibitory efficacy against Zika virus MR766 in Vero E6 miRFP670 cells (cotreated with P-gp inhibitor, CP100356). Cells are treated with antiviral candidates that are serially diluted. EC50 is reported via analysis of MTS assay as a readout of CPE. The assay has been performed by KU Leuven.; type: organism-based, Chlorocebus sabaeus, Vero C1008; conditions: for EC90: P-gp concentration 500 nM, P-gp inhibitor CP100356
dengue virus type 2 [2] = assay: Functional assay to measure dose dependent changes in antiviral-drug inhibitory efficacy against Dengue virus type 2 New Guinea C in Vero E6 miRFP670 cells (cotreated with P-gp inhibitor, CP100356). Cells are treated with antiviral candidates that are serially diluted, following infection, cells are fixed. EC50 is reported via analysis of fluorescence intensity using high-content imager. The …; type: organism-based, Chlorocebus sabaeus, Vero C1008; conditions: for EC90: Baseline response 0 %, Maximum response 100 %, P-gp concentration 500 nM, P-gp inhibitor CP100356
Zika virus [3] = assay: EC50 is reported via analysis of immunofluorescence staining. The assay has been performed by Icahn School of Medicine at Mount Sinai.; type: functional, organism-based, Chlorocebus sabaeus, VeroE6/TMPRSS2; conditions: Zika virus
dengue virus type 2 [4] = assay: Functional immunofluorescence assay to measure dose dependent changes in antiviral-drug inhibitory efficacy against Dengue virus type 2 Thailand/16681/84 in Vero E6/TMPRSS2 cells (cotreated with P-gp inhibitor, Elacridar). Cells are treated with antiviral candidates that are serially diluted, following infection, cells are fixed. EC50 is reported via analysis of immunofluorescence staining. The assay has been performed by Icahn School of Medicine at Mount Sinai.; type: organism-based, Chlorocebus sabaeus, VeroE6/TMPRSS2; conditions: Dengue virus; for EC90: P-gp concentration 2 uM, P-gp inhibitor Elacidar

Q: What does the source list for O=C(NC[C@H]1CCCO1)[C@H](Nc1ccc2c(c1)CNC2)c1cc(Cl)cc(C2CC2)c1?
A: EC50 (Zika virus [1]; Zika virus, Vero C1008): > 25 µM; EC90 (Zika virus [1]; Zika virus, Vero C1008, Baseline response 0 %, Hill slope 2.187, Maximum measured 41.665 %, Maximum response 100 %, Minimum measured -0.442 %, R squared 0.938): > 25 µM; EC50 (dengue virus type 2 [2]; Dengue virus, Vero C1008): > 50 µM; EC90 (dengue virus type 2 [2]; Dengue virus, Vero C1008, Hill slope -0.736, Maximum measured 108.993 %, Minimum measured 54.851 %, R squared 0.259): > 50 µM; EC50 (Zika virus [3]; VeroE6/TMPRSS2): > 5.56 µM; EC90 (Zika virus [3]; VeroE6/TMPRSS2, Maximum measured 140.093 %, Minimum measured 93.076 %, P-gp concentration 2 uM, P-gp inhibitor Elacidar): > 5.56 µM; EC90 (Zika virus [3]; VeroE6/TMPRSS2, Baseline response 0 %, Hill slope 0.091, Maximum measured 92.664 %, Maximum response 100 %, Minimum measured 73.777 %, P-gp concentration 2 uM, R squared 0.029, P-gp inhibitor Elacidar): > 5.56 µM; EC50 (dengue virus type 2 [4]; VeroE6/TMPRSS2): > 50 µM; EC90 (dengue virus type 2 [4]; VeroE6/TMPRSS2, Maximum measured 244.293 %, Minimum measured 137.827 %): > 50 µM

Q: With O=C(Nc1ccc2c(n1)CNC2)c1cc(Cl)cc2[nH]ncc12 as the compound, how does the EC50 (Zika virus [1]; Zika virus, Vero C1008) read?
A: > 50 µM

Q: What about the EC90 (Zika virus [1]; Zika virus, Vero C1008, Baseline response 0 %, Hill slope 0.276, Maximum measured 8.826 %, Maximum response 100 %, Minimum measured 2.871 %, R squared 0.346) of the same compound?
A: > 50 µM

Q: And the EC50 (dengue virus type 2 [2]; Dengue virus, Vero C1008)?
A: > 50 µM

Q: And the EC90 (dengue virus type 2 [2]; Dengue virus, Vero C1008, Hill slope 0.339, Maximum measured 101.822 %, Minimum measured 73.077 %, R squared 0.116)?
A: > 50 µM

Q: And the EC50 (Zika virus [3]; VeroE6/TMPRSS2)?
A: 5.29 µM

Q: And the EC90 (Zika virus [3]; VeroE6/TMPRSS2, Baseline response 0 %, Hill slope -0.136, Maximum measured 80.309 %, Maximum response 100 %, Minimum measured 35.788 %, P-gp concentration 2 uM, R squared 0.184, P-gp inhibitor Elacidar)?
A: > 50 µM

Q: What about the EC50 (dengue virus type 2 [4]; VeroE6/TMPRSS2) of the same compound?
A: 33.2 µM

Q: And the EC90 (dengue virus type 2 [4]; VeroE6/TMPRSS2, Baseline response 0 %, Hill slope -0.91, Maximum measured 153.42 %, Maximum response 100 %, Minimum measured 44.335 %, R squared 0.461)?
A: > 50 µM

Q: What does the source list for Cc1c(C(=O)Nc2cc([C@H]3CCOC3)ccn2)cc(C2CC2)n1C?
A: EC50 (Zika virus [1]; Zika virus, Vero C1008): > 50 µM; EC90 (Zika virus [1]; Zika virus, Vero C1008, Maximum measured 3.949 %, Minimum measured -5.577 %): > 50 µM; EC90 (Zika virus [1]; Zika virus, Vero C1008, Maximum measured -8.54 %, Minimum measured -21.261 %): > 50 µM; EC90 (dengue virus type 2 [2]; Hill slope 0.336, Maximum measured 108.09 %, Minimum measured 73.455 %, R squared 0.31): > 50 µM; EC50 (dengue virus type 2 [2]; Dengue virus, Vero C1008): > 50 µM; EC90 (dengue virus type 2 [2]; Dengue virus, Vero C1008, Hill slope -3.691, Maximum measured 104.755 %, Minimum measured 84.933 %, R squared 0.225): > 50 µM; EC50 (Zika virus [3]; VeroE6/TMPRSS2): 0.157 µM; EC90 (Zika virus [3]; VeroE6/TMPRSS2): 49.5 µM; EC50 (dengue virus type 2 [4]; VeroE6/TMPRSS2): > 50 µM; EC90 (dengue virus type 2 [4]; VeroE6/TMPRSS2, Maximum measured 144.829 %, Minimum measured 95.742 %): > 50 µM

Q: N[C@H]1Cc2ccc(NC(=O)c3cc(Cl)cc4[nH]ncc34)cc2C1 was tested. Which EC50 (Zika virus [1]; Zika virus, Vero C1008) did it give?
A: > 50 µM

Q: And the EC90 (Zika virus [1]; Zika virus, Vero C1008, Baseline response 0 %, Hill slope 8.874, Maximum measured 2.747 %, Maximum response 100 %, Minimum measured -3.726 %, R squared 0.015)?
A: > 50 µM

Q: What about the EC50 (dengue virus type 2 [2]; Dengue virus, Vero C1008) of the same compound?
A: > 50 µM

Q: And the EC90 (dengue virus type 2 [2]; Dengue virus, Vero C1008, Hill slope -0.493, Maximum measured 107.038 %, Minimum measured 74.642 %, R squared 0.117)?
A: > 50 µM

Q: And the EC50 (Zika virus [3]; VeroE6/TMPRSS2)?
A: 6.4 µM

Q: And the EC90 (Zika virus [3]; VeroE6/TMPRSS2, Baseline response 0 %, Hill slope -0.367, Maximum measured 76.386 %, Maximum response 70 %, Minimum measured 22.981 %, P-gp concentration 2 uM, R squared 0.54, P-gp inhibitor Elacidar)?
A: > 50 µM

Q: What about the EC50 (dengue virus type 2 [4]; VeroE6/TMPRSS2) of the same compound?
A: > 50 µM

Q: And the EC90 (dengue virus type 2 [4]; VeroE6/TMPRSS2, Baseline response 0 %, Hill slope -1.504, Maximum measured 137.122 %, Maximum response 100 %, Minimum measured 76.636 %, R squared 0.034)?
A: > 50 µM

Q: For Cc1c(C(=O)Nc2cc(-c3cccnc3)ccn2)cc(C2CC2)n1C, which EC90 (Zika virus [1]; Baseline response 0 %, Hill slope 10.672, Maximum measured 18.054 %, Maximum response 100 %, Minimum measured -2.868 %, R squared 0.771) is on record?
A: > 50 µM

Q: What about the EC50 (Zika virus [1]; Zika virus, Vero C1008) of the same compound?
A: > 50 µM

Q: And the EC90 (Zika virus [1]; Zika virus, Vero C1008, Baseline response 0 %, Hill slope 1.591, Maximum measured 7.654 %, Maximum response 100 %, Minimum measured -2.289 %, R squared 0.158)?
A: > 50 µM

Q: And the EC90 (dengue virus type 2 [2]; Hill slope 0.498, Maximum measured 89.901 %, Minimum measured 65.385 %, R squared 0.493)?
A: > 6.25 µM

Q: What about the EC90 (dengue virus type 2 [2]; Hill slope 0.771, Maximum measured 124.592 %, Minimum measured 47.777 %, R squared 0.6) of the same compound?
A: < 0.391 µM

Q: And the EC50 (dengue virus type 2 [2]; vero c1008)?
A: 0.83 µM and > 6.25 µM

Q: What about the EC50 (Zika virus [3]; VeroE6/TMPRSS2) of the same compound?
A: 14.5 µM

Q: What about the EC90 (Zika virus [3]; VeroE6/TMPRSS2) of the same compound?
A: 32.7 µM

Q: What about the EC50 (dengue virus type 2 [4]; VeroE6/TMPRSS2) of the same compound?
A: 46 µM

Q: And the EC90 (dengue virus type 2 [4]; VeroE6/TMPRSS2, Baseline response 0 %, Hill slope -10.528, Maximum measured 161.281 %, Maximum response 100 %, Minimum measured 29.52 %, R squared 0.091)?
A: > 50 µM
